Assay results published in patent US20210255193A1, “LYSINE REACTIVE PROBES AND USES THEREOF” (The Scripps Research Institute, priority 2017, published 2021).

Key:
Experiment in all cases: competitive isoTOP-ABPP
Format in all cases: binding
[1] = molecular target: T1, XRCC6 X-ray repair cross-complementing protein 6 (Homo sapiens, UniProt P12956); settings: for isoTOP-ABPP ratio (R) at liganded lysine P12956_K351: 50 uM, in vitro, sol, 231
T1 construct: isoTOP-ABPP experiments performed in cell lysates (in vitro); endogenous in cells; host or cells: soluble proteome of human cancer cell lines (MDA-MB-231; Ramos and Jurkat also prepared)
Outline: (§1)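 Cell lysate treated in vitro with fragments (50 μM activated esters, 100 μM guanidinylating agents) or DMSO, labelled 1 h at ambient temperature with 0.1 mM STP-alkyne, CuAAC-tagged with light/heavy TEV tags, analysed by MS. R = DMSO/compound MS1 peak-area ratio; lysines with R≥4 called liganded.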

[2] = molecular target: T2, MRPS24 28S ribosomal protein S24, mitochondrial (Homo sapiens, UniProt Q96EL2); settings: for isoTOP-ABPP ratio (R) at liganded lysine Q96EL2_K94: 50 uM, in vitro, sol, 231
T2 construct: isoTOP-ABPP experiments performed in cell lysates (in vitro); endogenous in cells; host or cells: soluble proteome of human cancer cell lines (MDA-MB-231; Ramos and Jurkat also prepared)
Outline: as §1

[3] = molecular target: T3, TRAP1 Heat shock protein 75 kDa, mitochondrial (Homo sapiens, UniProt Q12931); settings: for isoTOP-ABPP ratio (R) at liganded lysine Q12931_K699: 50 uM, in vitro, sol, 231
T3 construct: isoTOP-ABPP experiments performed in cell lysates (in vitro); endogenous in cells; host or cells: soluble proteome of human cancer cell lines (MDA-MB-231, Ramos, Jurkat)
T3 sequence (Q12931 60-704): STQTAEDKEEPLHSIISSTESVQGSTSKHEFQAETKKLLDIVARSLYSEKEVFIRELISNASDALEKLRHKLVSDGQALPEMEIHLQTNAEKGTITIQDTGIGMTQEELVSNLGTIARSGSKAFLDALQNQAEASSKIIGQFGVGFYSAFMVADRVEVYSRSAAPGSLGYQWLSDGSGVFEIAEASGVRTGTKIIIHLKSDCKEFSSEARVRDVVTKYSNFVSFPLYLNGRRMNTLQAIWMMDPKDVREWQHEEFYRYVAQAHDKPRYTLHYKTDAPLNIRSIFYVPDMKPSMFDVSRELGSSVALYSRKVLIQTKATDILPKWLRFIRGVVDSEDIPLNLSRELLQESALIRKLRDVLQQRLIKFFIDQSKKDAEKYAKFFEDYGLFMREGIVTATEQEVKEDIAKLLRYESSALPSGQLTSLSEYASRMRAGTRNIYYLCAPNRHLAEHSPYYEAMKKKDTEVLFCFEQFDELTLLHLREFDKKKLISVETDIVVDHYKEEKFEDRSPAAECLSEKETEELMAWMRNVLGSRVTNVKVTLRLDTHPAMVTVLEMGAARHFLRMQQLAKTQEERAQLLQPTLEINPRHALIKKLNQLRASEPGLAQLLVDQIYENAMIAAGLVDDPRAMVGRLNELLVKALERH
Outline: as §1

[4] = molecular target: T4, GLOD4 Glyoxalase domain-containing protein 4 (Homo sapiens, UniProt Q9HC38); settings: for isoTOP-ABPP ratio (R) at liganded lysine Q9HC38_K305: 50 uM, in vitro, sol, 231
T4 construct: endogenous in cells; host or cells: MDA-MB-231 (soluble fraction of lysate)
T4 sequence (Q9HC38 1-313): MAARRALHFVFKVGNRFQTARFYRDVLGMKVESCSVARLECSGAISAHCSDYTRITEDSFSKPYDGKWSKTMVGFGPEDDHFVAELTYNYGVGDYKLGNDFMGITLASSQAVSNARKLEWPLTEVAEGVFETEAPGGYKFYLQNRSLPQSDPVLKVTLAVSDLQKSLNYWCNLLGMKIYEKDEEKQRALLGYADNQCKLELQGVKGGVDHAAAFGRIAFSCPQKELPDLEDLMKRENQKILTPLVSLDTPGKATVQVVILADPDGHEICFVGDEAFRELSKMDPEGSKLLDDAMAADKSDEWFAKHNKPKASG
Outline: as §1

[5] = molecular target: T5, GLUD1 Glutamate dehydrogenase 1, mitochondrial (Homo sapiens, UniProt P00367); settings: for isoTOP-ABPP ratio (R) at liganded lysine P00367_K480: 50 uM, in vitro, sol, 231; for isoTOP-ABPP ratio, lysine P00367_K480: possible other lysine P00367_K477
T5 construct: isoTOP-ABPP experiments performed in cell lysates (in vitro); endogenous in cells; host or cells: MDA-MB-231 soluble lysate
Outline: as §1

T5 sequence (P00367 54-558): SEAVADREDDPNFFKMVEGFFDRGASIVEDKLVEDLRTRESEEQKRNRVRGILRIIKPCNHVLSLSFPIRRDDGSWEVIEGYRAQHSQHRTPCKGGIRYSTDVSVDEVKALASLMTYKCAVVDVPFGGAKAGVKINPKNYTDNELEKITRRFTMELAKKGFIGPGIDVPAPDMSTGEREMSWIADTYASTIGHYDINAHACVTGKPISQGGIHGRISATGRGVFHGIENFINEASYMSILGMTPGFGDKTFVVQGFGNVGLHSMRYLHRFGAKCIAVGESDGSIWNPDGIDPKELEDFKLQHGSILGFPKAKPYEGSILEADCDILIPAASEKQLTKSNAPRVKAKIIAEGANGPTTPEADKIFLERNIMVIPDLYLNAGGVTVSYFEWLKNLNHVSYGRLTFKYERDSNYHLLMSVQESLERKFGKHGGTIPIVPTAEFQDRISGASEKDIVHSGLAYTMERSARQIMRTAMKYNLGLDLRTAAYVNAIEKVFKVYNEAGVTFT
T1 sequence (P12956 2-609 limits assumed): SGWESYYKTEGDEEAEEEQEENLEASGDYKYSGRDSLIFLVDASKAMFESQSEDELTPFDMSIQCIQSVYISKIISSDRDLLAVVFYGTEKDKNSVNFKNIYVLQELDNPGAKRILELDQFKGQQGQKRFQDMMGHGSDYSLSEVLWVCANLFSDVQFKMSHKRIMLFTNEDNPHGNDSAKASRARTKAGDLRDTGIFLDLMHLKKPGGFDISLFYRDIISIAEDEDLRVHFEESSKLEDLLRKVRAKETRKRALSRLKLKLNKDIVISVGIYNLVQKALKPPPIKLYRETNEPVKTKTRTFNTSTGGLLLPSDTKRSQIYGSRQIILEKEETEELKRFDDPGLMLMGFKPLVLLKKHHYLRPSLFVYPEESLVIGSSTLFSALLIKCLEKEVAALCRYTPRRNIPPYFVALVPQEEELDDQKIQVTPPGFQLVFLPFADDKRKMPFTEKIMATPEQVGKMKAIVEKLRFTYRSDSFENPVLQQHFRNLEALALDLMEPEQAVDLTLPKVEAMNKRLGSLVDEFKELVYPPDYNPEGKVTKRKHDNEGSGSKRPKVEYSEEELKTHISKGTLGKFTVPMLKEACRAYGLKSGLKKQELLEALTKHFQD
T1 sequence (P13010 2-732 partner limits assumed): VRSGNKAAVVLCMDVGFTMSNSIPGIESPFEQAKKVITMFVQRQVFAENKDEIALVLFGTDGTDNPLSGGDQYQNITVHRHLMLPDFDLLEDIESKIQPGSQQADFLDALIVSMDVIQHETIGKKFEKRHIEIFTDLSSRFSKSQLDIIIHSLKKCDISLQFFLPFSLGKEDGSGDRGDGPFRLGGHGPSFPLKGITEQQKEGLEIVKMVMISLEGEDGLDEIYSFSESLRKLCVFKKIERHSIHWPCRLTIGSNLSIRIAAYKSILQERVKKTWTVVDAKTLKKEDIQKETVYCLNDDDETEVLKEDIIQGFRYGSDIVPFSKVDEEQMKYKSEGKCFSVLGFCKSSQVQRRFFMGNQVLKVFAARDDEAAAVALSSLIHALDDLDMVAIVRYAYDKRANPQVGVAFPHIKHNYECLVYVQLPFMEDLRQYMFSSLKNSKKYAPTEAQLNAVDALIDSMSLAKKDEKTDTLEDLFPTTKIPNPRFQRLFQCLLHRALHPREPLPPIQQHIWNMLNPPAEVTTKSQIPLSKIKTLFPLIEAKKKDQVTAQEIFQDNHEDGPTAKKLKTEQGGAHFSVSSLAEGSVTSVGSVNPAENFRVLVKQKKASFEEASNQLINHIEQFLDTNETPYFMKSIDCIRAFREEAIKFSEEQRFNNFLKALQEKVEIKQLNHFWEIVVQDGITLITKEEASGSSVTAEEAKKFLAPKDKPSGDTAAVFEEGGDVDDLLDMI

isoTOP-ABPP ratio, lysine P12956_K351 ([1]; 100 uM_231_sol_in vitro)	isoTOP-ABPP ratio, lysine Q96EL2_K94 ([2]; 100 uM_231_sol_in vitro)	isoTOP-ABPP ratio, lysine Q12931_K699 ([3]; 100 uM_231_sol_in vitro)	isoTOP-ABPP ratio, lysine Q9HC38_K305 ([4]; 100 uM_231_sol_in vitro)	isoTOP-ABPP ratio, lysine P00367_K480 ([5]; 100 uM_231_sol_in vitro)	SMILES	isoTOP-ABPP ratio (R) at liganded lysine P12956_K351 [1]	isoTOP-ABPP ratio (R) at liganded lysine Q96EL2_K94 [2]	isoTOP-ABPP ratio (R) at liganded lysine Q12931_K699 [3]	isoTOP-ABPP ratio (R) at liganded lysine Q9HC38_K305 [4]	isoTOP-ABPP ratio (R) at liganded lysine P00367_K480 [5]	isoTOP-ABPP ratio, lysine P12956_K351 ([1]; 50 uM_231_sol_in vitro)	isoTOP-ABPP ratio, lysine Q96EL2_K94 ([2]; 50 uM_231_sol_in vitro)	isoTOP-ABPP ratio, lysine Q12931_K699 ([3]; 50 uM_231_sol_in vitro)	isoTOP-ABPP ratio, lysine Q9HC38_K305 ([4]; 50 uM_231_sol_in vitro)	isoTOP-ABPP ratio, lysine P00367_K480 ([5]; 50 uM_231_sol_in vitro)
					O=C(Oc1ccc([N+](=O)[O-])cc1[N+](=O)[O-])C(c1ccccc1)(c1ccccc1)c1ccccc1 [fragment 42, 2,4-Dinitrophenyl 2,2,2-triphenylacetate]	1.0	1.5	1.0	0.9	1.1					
					CC(=O)Oc1ccc([N+](=O)[O-])cc1[N+](=O)[O-] [fragment 43, 2,4-Dinitrophenyl acetate]	1.5	1.1	1.0	0.7	3.9					
					N#Cc1ccc(C(=O)Oc2ccc([N+](=O)[O-])cc2[N+](=O)[O-])cc1 [fragment 44, 2,4-Dinitrophenyl 4-cyanobenzoate]						1.1	1.1	0.9	0.5	1.2
20.0	3.0	1.2	1.2	2.0	COC(=O)NC(=NC(=O)OCC1c2ccccc2-c2ccccc21)n1cccn1 [fragment 49, N-Methoxycarbonyl-N′-9-fluorenylmethoxycarbonyl-pyrazole-1-carboxamidine]										
6.0	2.2	1.1	1.1	1.3	CC(C)(C)OC(=O)N=C(NC(=O)OC(C)(C)C)n1cccn1 [fragment 50, reference compound]										
					NC(=O)c1cc(C(F)(F)F)cc(C(F)(F)F)c1 [fragment 51, reference compound]						0.8	0.9	1.2	0.9	1.5
